14 compounds from patent US8497380B2, “Substituted acetophenones useful as PDE4 inhibitors” (Leo Pharma A/S, priority 2006, dated 2013) can be followed below.

The term IC50 denotes the concentration needed to halve the response being measured. Low readings indicate higher potency, high ones lower potency.

Bounds are passed on as bounds.

The assay relates to Human peripheral blood mononuclear cells (PBMC). In words: TNFalfa-Release. It counts as cell-based. Particulars: inhibition of TNF-a secretion, PBMC pre-incubated 30 minutes, stimulated 18 hours with lipopolysaccharide. Here is the method: Human peripheral blood mononuclear cells (PBMC) are Isolated from buffy coats. The blood is mixed with saline at a ratio of 1:1, and the PBMC is isolated by the use of Lymphoprep Tubes™ (Nycomed, Norway). The PBMC is suspended in RPMI1640 with 2% foetal calf serum (FCS), pen/strep and 2 mM L-glutamine at a concentration of 5×105 c/ml. The cells are pre-incubated for 30 minutes with the test compounds in 96 well tissue culture plates and stimulated for 18 hours with lipopolysaccharide 1 mg/ml (Sigma). The level of TNF-a is measured in the culture supernatant by enzyme immuno assays using primary and secondary biotinylated antibodies from R&D systems. Results are expressed as pIC50 values calculated from inhibition curves using as positive controls the secretion in LPS stimulated wells and as negative controls the secretion in unstimulated cells.
The compound `COc1ccc(C(=O)Cc2c(Cl)cncc2Cl)c(OCc2ccc(Cl)s2)c1OC` [Compound 121, 1-[2-(5-Chloro-thiophen-2-ylmethoxy)-3,4-dimethoxy-phenyl]-2-(3,5-dichloro-pyridin-4-yl)-ethanone] gave an IC50 of under 1000 nM.

The compound `COc1cccc(CCOc2c(C(=O)Cc3c(Cl)cncc3Cl)ccc(OC)c2OC)c1` [Compound 125, 2-(3,5-Dichloro-pyridin-4-yl)-1-{3,4-dimethoxy-2-[2-(3-methoxy-phenyl)-ethoxy]-phenyl}-ethanone] showed an IC50 of under 1000 nM.

With `COc1ccc(C(=O)Cc2c(Cl)cncc2Cl)c(OCc2cccc(C(F)(F)F)c2)c1OC` [Compound 162, 2-(3,5-Dichloro-pyridin-4-yl)-1-[3,4-dimethoxy-2-(3-trifluoromethyl-benzyloxy)-phenyl]-ethanone], the IC50 is under 1000 nM.

For the compound `COc1ccc(C(=O)Cc2c(Cl)cncc2Cl)c(OCC(=O)NCCCOC(C)C)c1OC` [Compound 227, 2-{6-[2-(3,5-Dichloro-pyridin-4-yl)-acetyl]-2,3-dimethoxy-phenoxy}-N-(3-isopropoxy-propyl)-acetamide], the IC50 was under 1000 nM.

Consider `COc1ccc(C(=O)Cc2c(Cl)cncc2Cl)c(OCC(=O)Nc2ccccc2)c1OC` [Compound 205, 2-{6-[2-(3,5-Dichloro-pyridin-4-yl)-acetyl]-2,3-dimethoxy-phenoxy}-N-phenyl-acetamide], for which the IC50 is under 1000 nM.

`CCCNC(=O)COc1c(C(=O)Cc2c(Br)cncc2Br)ccc(OC)c1OC` [Compound 293, 2-{6-[2-(3,5-Dibromo-pyridin-4-yl)-acetyl]-2,3-dimethoxy-phenoxy}-N-propyl-acetamide] had an IC50 of under 1000 nM.

In turn, `COc1ccc(C(=O)Cc2c(Cl)cncc2Cl)c(O)c1OC1CCCC1` [Compound 260, 1-(3-Cyclopentyloxy-2-hydroxy-4-methoxy-phenyl)-2-(3,5-dichloro-pyridin-4-yl)-ethanone] showed an IC50 of under 1000 nM.

For the compound `COc1ccc(C(=O)Cc2c(Cl)cncc2Cl)c(OCC(=O)NCCCN2CCCC2=O)c1OC` [Compound 255, 2-{6-[2-(3,5-Dichloro-pyridin-4-yl)-acetyl]-2,3-dimethoxy-phenoxy}-N-[3-(2-oxo-pyrrolidin-1-yl)-propyl]-acetamide], the IC50 is under 1000 nM.

With `COc1ccc(C(=O)Cc2c(Cl)cncc2Cl)c(OCc2ccc(C#N)cc2)c1OC` [Compound 148, 4-{6-[2-(3,5-Dichloro-pyridin-4-yl)-acetyl]-2,3-dimethoxy-phenoxymethyl}-benzonitrile], the IC50 is under 1000 nM.

Turning to `COC(=O)c1cccc(COc2c(C(=O)Cc3c(Cl)cncc3Cl)ccc(OC)c2OC)c1` [Compound 134, 3-{6-[2-(3,5-Dichloro-pyridin-4-yl)-acetyl]-2,3-dimethoxy-phenoxymethyl}-benzoic acid methyl ester], the IC50 is under 1000 nM.

`CCOC(=O)CCCOc1c(C(=O)Cc2c(Cl)cncc2Cl)ccc(OC)c1OC` [Compound 142, 4-{6-[2-(3,5-Dichloro-pyridin-4-yl)-acetyl]-2,3-dimethoxy-phenoxy}-butyric acid ethyl ester] had an IC50 of under 1000 nM.

`COc1ccc(C(=O)Cc2c(Cl)cncc2Cl)c(OCC(C)C)c1OC` [Compound 141, 2-(3,5-Dichloro-pyridin-4-yl)-1-(2-isobutoxy-3,4-dimethoxy-phenyl)-ethanone]: the IC50 is under 1000 nM.

Compound `COc1ccc(C(=O)Cc2c(Cl)cncc2Cl)c(OCC(=O)NCc2ccccc2Cl)c1OC` [Compound 244, N-(2-Chloro-benzyl)-2-{6-[2-(3,5-dichloro-pyridin-4-yl)-acetyl]-2,3-dimethoxy-phenoxy}-acetamide] gave an IC50 of under 1000 nM.

In turn, `COc1ccc(C(=O)Cc2c(Cl)cncc2Cl)c(OCC2CCCCC2)c1OC` [Compound 151, 1-(2-Cyclohexylmethoxy-3,4-dimethoxy-phenyl)-2-(3,5-dichloro-pyridin-4-yl)-ethanone] showed an IC50 of under 1000 nM.
